The record followed here is US9376433B2, “(AZA-)isoquinolinone derivatives” (MERCK PATENT GMBH, priority 2012, dated 2016).

SMILES strings stand for the structures. pIC50: −log10 of the molar value.

One assay deals with T1, PARP-1 (Homo sapiens, UniProt P09874).
T1 construct: purchased Enzo Life Sciences GmbH, Lorrach, Germany
Description: PARP-1 autoparsylation assay (HTRF). The following applies: His-tagged Parp-1, human recombinant. The format is biochemical. From the text:
Description of the PARP1 Assay
Biochemical Activity Testing of PARP-1: Autoparsylation Assay
The autoparsylation assay is run in two steps: the enzymatic reaction in which His-tagged Parp-1 transfers biotinylated ADP-ribose/ADP-ribose to itself from biotinylated NAD/NAD as co-substrate and the detection reaction where a time resolved FRET between cryptate labelled anti-His antibody bound to the His tag of the enzyme and Xlent® labelled-streptavidin bound the biotin-parsylation residue is analysed. The autoparsylation activity is detectable directly via the increase in HTRF signal.
The autoparsylation assay is performed as 384-well HTRF® (Cisbio, Codolet, France) assay format in Greiner low volume nb 384-well microtiter plates. 35 nM His-tagged Parp-1 (human, recombinant, Enzo Life Sciences GmbH, Lorrach, Germany) and a mixture of 125 nM bio-NAD (Biolog, Life science Inst., Bremen, Germany) and 800 nM NAD as co-substrate are incubated in a total volume of 6 μl (100 mM Tris/HCl, 4 mM Mg-chloride, 0.01% IGEPAL® CA630, 1 mM DTT , 0.5% DMSO, pH 8, 13 ng/μl activated DNA (BPS Bioscience, San Diego, US)) in the absence or presence of the test compound (10 dilution concentrations) for 150 min at 23° C. The reaction is stopped by the addition of 4 μl of the Stop/detection solution (70 nM SA-Xlent® (Cisbio, Codolet, France), 2.5 nM Anti-His-K® (Eu-labelled anti-His, Cisbio, Codolet, France) in 50 mM HEPES, 400 mM KF, 0.1% BSA, 20 mM EDTA, pH 7.0). After 1 h incubation at room temperature the HTRF iss measured with an Envision multimode reader (Perkin Elmer LAS Germany GmbH) at excitation wavelength 340 nm (laser mode) and emission wavelengths 615 nm and 665 nm. The ratio of the emission signals is determined. The full value used is the inhibitor-free reaction. The pharmacological zero value used is Olaparib (LClabs, Woburn, US) in a final concentration of 1 μM. The inhibitory values (IC50) are determined using either the program Symyx Assay Explorer® or Condosseo® from GeneData.

The target of another assay is T2, Tankyrase-1 (Homo sapiens, UniProt O95271).
T2 construct: GST-tagged Tankyrase-1 (1023-1327 aa)
T2 sequence (O95271 1023-1327): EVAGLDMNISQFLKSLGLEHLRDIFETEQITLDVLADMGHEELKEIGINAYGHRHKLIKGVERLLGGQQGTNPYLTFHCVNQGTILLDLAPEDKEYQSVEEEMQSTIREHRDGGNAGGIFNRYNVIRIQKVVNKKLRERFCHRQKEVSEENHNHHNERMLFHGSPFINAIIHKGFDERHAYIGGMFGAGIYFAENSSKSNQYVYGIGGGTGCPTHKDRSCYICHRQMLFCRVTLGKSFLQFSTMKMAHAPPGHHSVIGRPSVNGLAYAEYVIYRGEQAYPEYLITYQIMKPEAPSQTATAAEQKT
The experiment in a line: Tankyrase 1 autoparsylation assay (HTRF enzyme assay). Conditions: GST-tagged Tankyrase-1 (1023-1327 aa). The format is biochemical. As for the experimental part:
Biochemical activity testing of Tankyrase 1 and 2: Autoparsylation assay
The autoparsylation assay is run in two steps: the enzymatic reaction in which GST-tagged Tankyrase-1, resp Tankyrase-2 transferred biotinylated ADP-ribose to itself from biotinylated NAD as co-substrate and the detection reaction where a time resolved FRET between cryptate labelled anti-GST bound to the GST tag of the enzyme and Xlent® labelled-streptavidin bound the biotin-parsylation residue is analysed. The autoparsylation activity was detectable directly via the increase in HTRF signal.
The autoparsylation assay is performed as 384-well HTRF® (Cisbio, Codolet, France) assay format in Greiner low volume nb 384-well microtiter plates and is used for high throughput screen. 250 nM GST-tagged Tankyrase-1 (1023-1327 aa), respectively about 250 nM GST-tagged Tankyrase-2 (873-1166 aa) and 5 μM bio-NAD (Biolog, Life science Inst., Bremen, Germany) as co-substrate are incubated in a total volume of 5 μl (50 mM HEPES, 4 mM Mg-chloride, 0.05% Pluronic F-68, 1.4 mM DTT, 0.5% DMSO, pH 7.7) in the absence or presence of the test compound (10 dilution concentrations) for 90 min at 30° C. The reaction is stopped by the addition of 1 μl 50 mM EDTA solution. 2 μl of the detection solution (1.6 μM SA-Xlent® (Cisbio, Codolet, France), 7.4 nM Anti-GST-K® (Eu-labelled anti-GST, Cisbio, Codolet, France) in 50 mM HEPES, 800 mM KF, 0.1% BSA, 20 mM EDTA, 0.1% CHAPS, pH 7.0) are added. After 1 h incubation at room temperature the HTRF is measured with an Envision multimode reader (Perkin Elmer LAS Germany GmbH) at excitation wavelength 340 nm (laser mode) and emission wavelengths 615 nm and 665 nm. The ratio of the emission signals is determined. The full value used is the inhibitor-free reaction. The pharmacological zero value used is XAV-939 (Tocris) in a final concentration of 5 μM. The inhibitory values (IC50) are determined using either the program Symyx Assay Explorer® or Condosseo® from GeneData.

T1 sequence (P09874 whole entry): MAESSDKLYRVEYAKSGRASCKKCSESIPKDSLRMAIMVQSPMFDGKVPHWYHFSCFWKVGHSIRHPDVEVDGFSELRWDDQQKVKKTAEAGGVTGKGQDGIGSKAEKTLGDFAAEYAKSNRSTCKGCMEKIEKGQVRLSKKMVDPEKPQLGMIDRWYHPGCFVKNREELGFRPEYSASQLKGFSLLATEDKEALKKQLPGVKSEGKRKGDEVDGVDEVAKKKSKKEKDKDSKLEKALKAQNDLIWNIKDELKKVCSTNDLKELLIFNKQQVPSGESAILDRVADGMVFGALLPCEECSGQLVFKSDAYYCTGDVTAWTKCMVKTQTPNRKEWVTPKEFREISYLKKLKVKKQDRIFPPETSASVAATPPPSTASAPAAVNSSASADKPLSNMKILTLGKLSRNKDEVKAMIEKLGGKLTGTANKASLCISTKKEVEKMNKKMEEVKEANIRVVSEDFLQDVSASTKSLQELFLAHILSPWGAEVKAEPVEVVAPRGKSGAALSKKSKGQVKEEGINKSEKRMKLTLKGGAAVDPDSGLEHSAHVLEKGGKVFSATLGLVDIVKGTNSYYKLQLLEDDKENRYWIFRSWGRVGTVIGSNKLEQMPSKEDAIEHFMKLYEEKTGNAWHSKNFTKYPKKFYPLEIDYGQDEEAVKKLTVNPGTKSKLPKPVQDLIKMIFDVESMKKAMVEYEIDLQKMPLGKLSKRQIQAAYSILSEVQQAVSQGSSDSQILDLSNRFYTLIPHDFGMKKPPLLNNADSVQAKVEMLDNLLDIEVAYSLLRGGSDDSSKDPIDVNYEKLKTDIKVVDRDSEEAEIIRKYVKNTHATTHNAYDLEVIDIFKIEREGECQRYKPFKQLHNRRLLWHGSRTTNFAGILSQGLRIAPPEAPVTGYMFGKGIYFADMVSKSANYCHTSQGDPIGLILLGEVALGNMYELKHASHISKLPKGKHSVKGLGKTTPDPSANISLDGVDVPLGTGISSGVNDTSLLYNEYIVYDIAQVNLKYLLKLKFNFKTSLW

In the case of `Cc1ccc(-c2cc3c(C)cccc3c(=O)[nH]2)cc1` [Compound A29, 5-methyl-3-(p-tolyl)-2H-isoquinolin-1-one], the pIC50 on PARP-1 and against Tankyrase-1 was above 6.52 each time.
Turning to `Cn1cc(-c2ccc(-c3cc4ccc(F)cc4c(=O)[nH]3)cc2)cn1` [Compound A18, 7-fluoro-3-[4-(1-methyl-1H-pyrazol-4-yl)-phenyl]-2H-isoquinolin-1-one], the pIC50 on PARP-1 is 5.52 to 6.52; against Tankyrase-1 it was above 6.52.
For `CC(C)(O)c1ccc(-c2cc3cnccc3c(=O)[nH]2)cc1` [Compound A23, 3-[4-(1-hydroxy-1-methyl-ethyl)phenyl]-2H-2,6-naphthyridin-1-one] the same measures were 4.30 to 5.52 and above 6.52.
For `CC(C)(O)c1ccc(-c2cc3c(F)cccc3c(=O)[nH]2)cc1` [Compound A28, 5-fluoro-3-[4-(1-hydroxy-1-methyl-ethyl)phenyl]-2H-isoquinolin-1-one] the same measures were 5.52 to 6.52 and above 6.52.
With `CC(C)(O)c1ccc(-c2cc3ccc(F)cc3c(=O)[nH]2)cc1` [Compound A6, 7-fluoro-3-[4-(1-hydroxy-1-methyl-ethyl)-phenyl]-2H-isoquinolin-1-one], the pIC50 at PARP-1 is 5.52 to 6.52; at Tankyrase-1, above 6.52.
For `CC(C)(O)c1ccc(-c2cc3cccc(F)c3c(=O)[nH]2)cc1` [Compound A27, 8-fluoro-3-[4-(1-hydroxy-1-methyl-ethyl)phenyl]-2H-isoquinolin-1-one] the same measures were 5.52 to 6.52 and above 6.52.
Take `COC(C)(C)c1ccc(-c2cc3ccccc3c(=O)[nH]2)cc1` [Compound A15, 3-[4-(1-methoxy-1-methyl-ethyl)-phenyl]-2H-isoquinolin-1-one]: the pIC50 at PARP-1 is 5.52 to 6.52; on Tankyrase-1, above 6.52.
For `CC(C)(O)c1ccc(-c2cc3cc(F)ccc3c(=O)[nH]2)cc1` [Compound A5, 6-fluoro-3-[4-(1-hydroxy-1-methyl-ethyl)-phenyl]-2H-isoquinolin-1-one] the same measures were 5.52 to 6.52 and above 6.52.
Turning to `CC(C)(O)c1ccc(-c2cc3ccccc3c(=O)[nH]2)cc1` [Compound A3, 3-[4-(1-hydroxy-1-methyl-ethyl)-phenyl]-2H-isoquinolin-1-one], the values for the pIC50 at PARP-1 and at Tankyrase-1 were 5.52 to 6.52 and above 6.52, respectively.
For `Cc1ccc(-c2cc3cccc(F)c3c(=O)[nH]2)cc1` [Compound A11, 8-fluoro-3-p-tolyl-2H-isoquinolin-1-one] the same measures were 5.52 to 6.52 and above 6.52.
As to `CC(C)(O)c1ccc(-c2cc3ccncc3c(=O)[nH]2)cc1` [Compound A24, 3-[4-(1-hydroxy-1-methyl-ethyl)phenyl]-2H-2,7-naphthyridin-1-one], the figures for the pIC50 at PARP-1 and against Tankyrase-1 were 4.30 to 5.52 and above 6.52, respectively.
For `CC(C)(OCCO)c1ccc(-c2cc3ccc(F)cc3c(=O)[nH]2)cc1` [Compound A16, 7-fluoro-3-{4-[1-(2-hydroxy-ethoxy)-1-methyl-ethyl]-phenyl}-2H-isoquinolin-1-one] the same measures were 5.52 to 6.52 and above 6.52.
`CC(C)(N)c1ccc(-c2cc3ccc(F)cc3c(=O)[nH]2)cc1` [Compound A20, 3-[4-(1-amino-1-methyl-ethyl)phenyl]-7-fluoro-2H-isoquinolin-1-one]: the pIC50 on PARP-1 and against Tankyrase-1 was above 6.52 each time.
Take `C=C(C)c1ccc(-c2cc3ccc(F)cc3c(=O)[nH]2)cc1` [Compound A17, 7-fluoro-3-(4-isopropenyl-phenyl)-2H-isoquinolin-1-one]: the pIC50 on PARP-1 was 5.52 to 6.52; on Tankyrase-1 it was above 6.52.
For `CC(C)(O)c1ccc(-c2cc3c(F)cc(F)cc3c(=O)[nH]2)cc1` [Compound A33, 5,7-difluoro-3-[4-(1-hydroxy-1-methyl-ethyl)-phenyl]-2H-isoquinolin-1-one] the same measures were above 6.52 and above 6.52.
For `Cn1cc(-c2ccc(-c3cc4ccncc4c(=O)[nH]3)cc2)cn1` [Compound A14, 3-[4-(1-Methyl-1H-pyrazol-4-yl)-phenyl]-2H-[2,7]naphthyridin-1-one] the same measures were 4.30 to 5.52 and above 6.52.
Turning to `Cc1ccc(-c2cc3ccc(F)cc3c(=O)[nH]2)cc1` [Compound A9, 7-fluoro-3-p-tolyl-2H-isoquinolin-1-one], the pIC50 at PARP-1 and against Tankyrase-1 was above 6.52 each time.
Take `Cc1ccc(-c2cc3cc(F)ccc3c(=O)[nH]2)cc1` [Compound A10, 6-fluoro-3-p-tolyl-2H-isoquinolin-1-one]: the pIC50 at PARP-1 is 4.30 to 5.52; on Tankyrase-1 it was 5.52 to 6.52.
With `Cc1ccc(-c2cc3c(F)cccc3c(=O)[nH]2)cc1` [Compound A12, 5-fluoro-3-p-tolyl-2H-isoquinolin-1-one], the pIC50 on PARP-1 is 5.52 to 6.52; against Tankyrase-1, above 6.52.
